{"source": "paper PMC7337064", "about": "“Parsing the functional specificity of Siderocalin/Lipocalin 2/NGAL for siderophores and related small-molecule ligands” (Journal of Structural Biology: X, 2019)", "molecules": {"B1": {"name": "Scn: glycoprotein Siderocalin, innate immune system protein with bacteriostatic activity (protein, UniProt P80188 21-198, looked up)", "Neutrophil …": "QDSTSDLIPAPPLSKVPLQQNFQDNQFQGKWYVVGLAGNAILREDKDPQKMYATIYELKEDKSYNVTSVLFRKKKCDYWIRTFVPGCQPGEFTLGNIKSYPGLTSYLVRVVSTNYNQHAMVFFKKVSQNREYFKITLYGRTKELTSELKENFIRFSKSLGLPENHIVFPVPIDQCIDG"}}, "key": {"Scn [1]": {"molecular_target": "T1, Scn (Homo sapiens, UniProt P80188)", "T1 construct": "made in house", "details": "cited from earlier work; for binding to Scn, qualitative binding assays: ref Holmes et al., 2005"}, "Scn(C87S/Y106F)": {"molecular_target": "Scn(C87S/Y106F)", "set-up": "method as in Abergel et al., 2008", "details": "Y106F mutation; ref Abergel et al., 2008; cited from earlier work"}, "Scn(C87S/K125A/K134A)": {"molecular_target": "T2, Scn(C87S/K125A/K134A) (Homo sapiens, UniProt P80188, C107S/K145A/K154A)", "T2 construct": "made in house", "T2 sequence (P80188 21-198 C107S/K145A/K154A)": "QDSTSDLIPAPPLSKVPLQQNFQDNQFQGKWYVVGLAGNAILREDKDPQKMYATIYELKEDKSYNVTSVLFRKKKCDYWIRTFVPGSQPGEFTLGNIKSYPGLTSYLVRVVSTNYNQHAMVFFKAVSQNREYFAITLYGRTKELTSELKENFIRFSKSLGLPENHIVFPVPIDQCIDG", "experiment": "crystallographic analysis and qualitative co-crystallization binding trials, Scn(C87S/K125A/K134A)", "details": "crystals grown in the presence of Fe-ENT"}, "Scn [2]": {"molecular_target": "Scn", "set-up": "method as in Li et al., 2015", "details": "ref Li et al., 2015; cited from earlier work"}, "Scn(C87S/W79A/R81A)": {"molecular_target": "Scn(C87S/W79A/R81A)", "set-up": "method as in Abergel et al., 2008", "details": "W79A/R81A mutation; ref Abergel et al., 2008; cited from earlier work"}, "Scn(C87S/K125A) [3]": {"molecular_target": "T3, Scn(C87S/K125A) (Homo sapiens, UniProt P80188, C107S/K145A)", "T3 construct": "made in house", "T3 sequence (P80188 21-198 C107S/K145A)": "as the sequence (P80188 21-198 C107S/K145A/K154A) above, with A134K counted along it", "experiment": "FQ binding assay, Scn(C87S/K125A) mutant", "description": "(§1) Growing somewhat frustrated with our inability to fully ablate ligand binding by even fairly extensive mutation, we focused on alternate mutations involving key Pocket #1: K125A, K134A, and the combination. Both lysine side-chains contribute bracketing Coulombic, cation-π, and hydrophobic interactions to the CAM group in this calyx pocket (Fig. 1A). […] The observed < 40-fold affinity reductions were surprising, given the seemingly crucial interactions contributed by these two side-chains bracketing the key pocket.\n(§2) Protein biochemistry and crystallography: Mutations were made as previously described ([Abergel et al., 2008], [Goetz et al., 2002]). All clones were confirmed by DNA sequencing. Scn proteins were expressed and purified as previously described ([Abergel et al., 2008], [Bundgaard et al., 1994], [Goetz et al., 2002]). YfiY was expressed and purified as previously described. All crystals were grown using hanging drop vapor diffusion at room temperature. […] Initial Scn structure phases were calculated from the 1L6M.pdb structure and optimized by rigid-body refinement using REFMAC5 ([Murshudov et al., 1997]), or by molecular replacement using 1L6M.pdb as the search model with PHASER ([McCoy et al., 2007]). […]"}, "Scn(C87S/K125A) [4]": {"molecular_target": "T3, Scn(C87S/K125A)", "experiment": "qualitative binding by co-crystallization (crystal color), Scn(C87S/K125A)", "details": "color of complex crystals", "description": "as §1\n(§3) Fig. 6 Effects of mutating proximal calyx-lining residues on ligand recognition. (A) Superpositions of the three Fe-ENT complexes in the crystallographic AU of the complex with the Scn(C87S/K125A) mutant are shown in a stereoview, oriented and styled as in Fig. 3C. […] (C) Superpositions of the three Fe-ENT complexes in the crystallographic AU of the complex with the Scn(C87S/K134A) mutant are shown in a stereoview. […]\n(§4) Protein biochemistry and crystallography: Mutations were made as previously described ([Abergel et al., 2008], [Goetz et al., 2002]). […] Initial Scn structure phases were calculated from the 1L6M.pdb structure and optimized by rigid-body refinement using REFMAC5 ([Murshudov et al., 1997]), or by molecular replacement using 1L6M.pdb as the search model with PHASER ([McCoy et al., 2007]). […]"}, "Scn(C87S/K134A) [5]": {"molecular_target": "T4, Scn(C87S/K134A) (Homo sapiens, UniProt P80188, C107S/K154A)", "T4 construct": "made in house", "T4 sequence (P80188 21-198 C107S/K154A)": "as the sequence (P80188 21-198 C107S/K145A/K154A) above, with A125K counted along it", "experiment": "qualitative binding by co-crystallization (crystal color), Scn(C87S/K134A)", "details": "color of complex crystals", "description": "as §1, §3, §4"}, "Scn(C87S/K134A) [6]": {"molecular_target": "T4, Scn(C87S/K134A)", "experiment": "FQ binding assay, Scn(C87S/K134A) mutant", "description": "as §1, §2"}, "Scn [7]": {"molecular_target": "T1, Scn", "details": "ref Abergel et al., 2006a, cited from earlier work"}, "human Scn (C87S)": {"molecular_target": "T5, human Scn (C87S) (Homo sapiens, UniProt P80188, C107S)", "T5 construct": "made in house", "T5 sequence (P80188 21-198 C107S)": "as the sequence (P80188 21-198 C107S/K145A/K154A) above, with A125K, A134K counted along it", "experiment": "crystallographic test of candidate ligand binding in the Scn calyx", "description": "Pseudomonas aeruginosa is a Gram-negative γ-proteobacterium which can cause acute and chronic infections ranging from septicemia, urinary infections, wound colonization, and chronic lung colonization in cystic fibrosis patients ([Cornelis and Dingemans, 2013]). P. aeruginosa produces two chemically-distinct siderophores, pyoverdine (PVD) and PCH, with relatively high or low affinities for iron, respectively. […] The quite large PVD structure would also not be expected to fit within the Scn calyx, nor would the structure of PCH-chelated iron be expected to fit within the key binding pocket, due to tight steric constraints around the iron center imposed by K125 and K134. A preliminary crystal structure of a Scn/PCH complex (3U03.pdb) was deposited in the Protein Databank (PDB, ([Berman et al., 2000])) by a structural genomics consortium. […] First, using the deposited diffraction data, it was readily apparent that the PCH ligand as modeled sat in negative electron density in difference Fourier syntheses (Fig. 7A). Second, this particular crystal form of Scn usually contains three molecules in the asymmetric unit, though only two had been modeled in the deposited structure. Using the deposited diffraction data, we re-refined the structure (Table 2), successfully placing the third Scn molecule and improving refinement statistics: Rfree/Rwork values decreased from 0.303/0.269 (3U03.pdb) to 0.253/0.235 (Table 2).\nThough hexadentate catecholate siderophores have much higher complexation constants, bidentate catecholamine hormones (e.g. norepinephrine, NE) are capable of chelating iron in 3:1 complexes, and can serve to promote bacterial growth, at least in vitro ([O'Donnell et al., 2006]). […] However, no co-crystal structure was or has been subsequently reported, and the observed crystal habit was distinct from the typical tetragonal forms observed for Scn (e.g., Fig. 6B, D, and F). […] In order to resolve this discrepancy, we undertook to directly determine the Fe-NE/Scn co-crystal structure. […]"}, "P. aeruginosa": {"test_system": "P. aeruginosa", "set-up": "method as in Correnti et al., 2011", "details": "in vitro; ref Correnti et al., 2011; cited from earlier work"}}, "note": "Entries after “also recorded” stand apart in the source; their conditions may differ. Read-outs that look alike come from different tables or passages of the source."}
{"molecule": "O=C(O)c1ccc(O)c(O)c1", "note": "[3,4-DHBA]", "values": [{"measurement": "binding to Scn", "setting": "Scn [1]; ref Correnti et al., 2012", "result": "do not bind"}]}
{"molecule": "O=C(N[C@H]1COC(=O)[C@@H](NC(=O)c2cccc(O)c2O)COC(=O)[C@@H](NC(=O)c2cccc(O)c2O)COC1=O)c1cccc(O)c1O.[Fe]", "note": "[Fe-ENT]", "values": [{"measurement": "Kd", "setting": "Scn(C87S/Y106F)", "result": 20, "unit": "nM"}, {"measurement": "ligand binding (crystal structure and co-crystallization trials)", "setting": "Scn(C87S/K125A/K134A)", "result": "lack of ligand binding; also recorded: fully ablating ligand binding"}, {"measurement": "KD by ITC", "setting": "Scn [2]", "result": "micromolar"}, {"measurement": "Kd", "setting": "Scn(C87S/W79A/R81A)", "result": 71, "unit": "nM"}, {"measurement": "Kd", "setting": "Scn(C87S/K125A) [3]; FQ, huScn (K125A)", "result": "15 ± 3", "unit": "nM"}, {"measurement": "affinity reduction versus wild-type Scn", "setting": "Scn(C87S/K125A) [3]; K125A mutation", "result": "< 40", "unit": "fold"}, {"measurement": "qualitative binding by co-crystallization", "setting": "Scn(C87S/K125A) [4]", "result": "binding qualitatively confirmed"}, {"measurement": "qualitative binding by co-crystallization", "setting": "Scn(C87S/K134A) [5]", "result": "binding also qualitatively confirmed"}, {"measurement": "Kd", "setting": "Scn(C87S/K134A) [6]; FQ, huScn (K134A)", "result": "10 ± 2", "unit": "nM"}, {"measurement": "affinity reduction versus wild-type Scn", "setting": "Scn(C87S/K134A) [6]; K134A mutation", "result": "< 40", "unit": "fold"}, {"measurement": "Kd", "setting": "Scn [7]; wild-type Scn, Abergel et al., 2008, Goetz et al., 2002", "result": 0.4, "unit": "nM"}]}
{"molecule": "NC[C@H](O)c1ccc(O)c(O)c1", "note": "[NE, norepinephrine]", "values": [{"measurement": "ligand electron density in difference Fourier syntheses", "setting": "human Scn (C87S); co-crystallized with 2:1:1 2,3-DHBA:NE:iron complexes", "result": "did not show difference features distinct from the previously-determined Scn:2,3-DHBA:iron complex structure"}, {"measurement": "ligand electron density in difference Fourier syntheses", "setting": "human Scn (C87S); crystals grown with stoichiometric 3:1 NE:iron mixtures", "result": "did not show electron density features assignable to iron or ligand atoms"}]}
{"molecule": "CN1[C@@H]([C@H]2CSC(c3ccccc3O)=N2)SC[C@H]1C(=O)O", "note": "[PCH, pyochelin]", "values": [{"measurement": "binding to Scn, qualitative binding assays", "setting": "Scn [1]", "result": "does not appreciably bind"}, {"measurement": "ligand binding in calyx (re-refined crystal structure)", "setting": "human Scn (C87S); re-refinement of 3U03.pdb diffraction data, under these crystallization conditions", "result": "does not bind"}]}
{"molecule": "O=C(N[C@H]1COC(=O)[C@@H](NC(=O)c2cccc(O)c2O)COC(=O)[C@@H](NC(=O)c2cccc(O)c2O)COC1=O)c1cccc(O)c1O", "note": "[apo-ENT, enterobactin/enterochelin]", "values": [{"measurement": "Kd", "setting": "Scn [7]; apo ligand (no iron)", "result": 3.6, "unit": "nM"}]}
{"molecule": "pyoverdine [PVD]", "values": [{"measurement": "binding to Scn, qualitative binding assays", "setting": "Scn [1]", "result": "does not appreciably bind"}]}
{"molecule": "B1", "values": [{"measurement": "growth arrest of P. aeruginosa", "setting": "P. aeruginosa", "result": "does not arrest the growth"}]}
